{"source": "patent US20090264528A1", "about": "“SERINE PALMITOYLCOA TRANSFERASE (SPT) INHIBITION BY MYRIOCIN OR GENETIC DEFICIENCY DECREASES CHOLESTEROL ABSORPTION” (The Research Foundation of State University of New York, priority 2008, published 2009)", "format_in_all_cases": "in vivo, mouse", "key": {"NPC1L1": {"test_system": "NPC1L1", "test": "Western blot of small intestine homogenates, NPC1L1", "settings": "WT and apoE KO mice, compared with nontreated animals", "protocol": "FIG. 8 depicts that SPT deficiency decreased NPC1L1 and ABCA1, and increased ABCG5 in mouse small intestine. Tissue homogenates were prepared as described in Methods, and equal amounts of homogenates from each mouse were pooled in each group (n=5). A total of 50 microg pooled sample from each group was immunoblotted with antibodies against NPC1L1, ABCA1, and ABCG5. Immunoblots of beta (β)-actin were used as a loading control.\nPreparation and Western blot analysis of small intestine homogenates: A total of 50-100 mg of small intestine sample was homogenized and lysed proteins were immunoblotted, as previously described, (3) with a polyclonal rabbit antihuman NPC1L1 antiserum 69B, a polyclonal rabbit antimouse ABCG5 antiserum, a polyclonal antimouse ABCA1 antibody, and a monoclonal mouse anti-(beta)β-actin antibody.\nNext, Western blot measurements of NPC1L1 and ABCG5/G8 were completed, where the measurement were located in apical membranes of the enterocytes. […] Also, ABCA1 was measured, which is located in the basal membranes of the enterocytes and is involved in cholesterol secretion."}, "ABCG5 mRNA": {"test_system": "ABCG5 mRNA", "test": "Real-time PCR, ABCG5 mRNA", "settings": "for increase of ABCG5 mRNA levels compared with controls: small intestine, P<0.01", "protocol": "(§1) FIGS. 9A-F depict that Mouse small intestine and liver NPC1L1, ABCG5/G8, and ABCA1 mRNA measurements. NPC1L1, ABCG5/G8, and ABCA1 mRNA levels were measured by real-time PCR as described in “Methods and Materials.” FIG. 9A, jejunum from WT mice with or without myriocin treatment; FIG. 9B, jejunum from apoE KO mice with or without myriocin treatment; FIG. 9C, jejunum from WT and Sptlc1^+/− mice; FIG. 9D, liver from WT mice with or without myriocin treatment; FIG. 9E, liver from apoE KO mice with or without myriocin treatment; FIG. 9F, liver from WT and Sptlc1^+/− mice. Values are mean±SD, n=5. *P<0.01.\n(§2) Real-time PCR examined genes' expression: Mice were sacrificed by cervical dislocation. Jejunum was dissected, and total RNA extracted with Trizol (Invitrogen). cDNA was synthesized with an Invitrogen kit. Polymerase chain reaction (PCR) was performed on a total volume of 20 microl with the sybergreen kit from Applied Biosystems, 18S being used as an internal control. The amplification program consisted of activation at 95 degrees C. for 10 minutes, followed by 40 amplification cycles: 95 degrees C. for 15 seconds, 60 degrees C. for 1 minute. Each sample was triplicated. The genes' relative expression was expressed as mean±SD. The primers are located in the below table which lists the name, sequence, and sequence identification number.\n(§3) For further elucidation of the possible mechanisms for cholesterol absorption reduction in the SPT-deficient small intestine, NPC1L1, ABCG5/G8, and ABCA1 mRNA levels in myriocin-treated WT, apoE KO, and Sptlc1^+/− mice, as well as in controls were measured. […] Moreover, intestinal MTP activity was not influenced by SPT deficiency (data not shown). Also, the liver mRNA levels were measured to find that myriocin treatment or Sptlc1 deficiency has no influence on ABCG5/G8 mRNA levels […]. […] NPC1L1 mRNA in WT or Sptlc1^+/− livers were not detected (data not shown)."}, "NPC1L1 mRNA": {"test_system": "NPC1L1 mRNA", "test": "Real-time PCR, NPC1L1 mRNA", "settings": "small intestine (jejunum)", "protocol": "as §1\nReal-time PCR examined genes' expression: Mice were sacrificed by cervical dislocation. Jejunum was dissected, and total RNA extracted with Trizol (Invitrogen). cDNA was synthesized with an Invitrogen kit. […] The genes' relative expression was expressed as mean±SD. […]\nFor further elucidation of the possible mechanisms for cholesterol absorption reduction in the SPT-deficient small intestine, NPC1L1, ABCG5/G8, and ABCA1 mRNA levels in myriocin-treated WT, apoE KO, and Sptlc1^+/− mice, as well as in controls were measured. […] Also, the liver mRNA levels were measured to find that myriocin treatment or Sptlc1 deficiency has no influence on ABCG5/G8 mRNA levels (FIG. 7B). […] NPC1L1 mRNA in WT or Sptlc1^+/− livers were not detected (data not shown)."}, "ABCG8 mRNA": {"test_system": "ABCG8 mRNA", "test": "Real-time PCR, ABCG8 mRNA", "settings": "for increase of ABCG8 mRNA levels compared with controls: small intestine, P<0.01", "protocol": "as §1, §2, §3"}, "triglyceride absorption": {"test_system": "triglyceride absorption", "test": "[3H]triolein-derived counts in plasma (triglyceride absorption)", "settings": "myriocin treated animals (WT, apoE KO), within 24 hours", "protocol": "FIGS. 5A-I depict several graphs that illustrate that SPT deficient mice absorbed less cholesterol. Mice (n=6, 10-12 weeks old) were fasted for 5 hours and gavaged with 0.1 microCi [^14C]cholesterol and 0.2 microCi [^3H]sitostanol with 0.5 mg unlabeled cholesterol dissolved in 15 microl of olive oil. Feces were collected after 24 hours and lipids were extracted for counting (FIGS. 5A, 5D, and 5G, cholesterol absorption, WT vs WT/myriocin; apoE KO vs apoE KO/myriocin; WT vs Sptlc1^+/−, respectively). Blood was collected during the 24 hour period (Panels B, E, and H, [^14C]cholesterol in blood, WT vs WT/myriocin; apoE KO vs apoE KO/myriocin; WT vs Sptlc1^+/−, respectively). To test specificity, the mice were gavaged with 0.2 microCi [^3H]triolein together with 0.5 mg/ml cold cholesterol. Blood was collected during the 24 hour period (FIGS. 5C, 5F, and 5I, [^3H] glycerolipids in blood, WT versus WT/myriocin; apoE KO versus apoE KO/myriocin; WT versus Sptlc1^+/−, respectively). Value is mean±SD. *P<0.01.\nTo investigate whether the effect of SPT deficiency was specific to cholesterol, experimental mice were fed with […] [^3H]triolein instead of [^14C]cholesterol, and blood was collected at different time points within 24 hours."}, "small intestine": {"test_system": "small intestine", "test": "Small intestine morphology, hematoxylin and eosin staining", "settings": "WT and apoE KO mice after myriocin treatment", "text": "The small intestine was dissected out and put into 4% paraformaldehyde for fixation overnight. The tissue was then sliced (10 micrometer thick). Each slice was deparaffinized and stained with hematoxylin and eosin. The morphology was checked by microscope. WT mice fed chow diet (FIGS. 2A, 2B) or chow diet plus myriocin (FIGS. 2C, 2D). FIGS. 2A and 2C are at 10× magnification, while FIGS. 2B and 2D are at 40× magnification.\nThe small intestine was dissected out and put into 4% paraformaldehyde for fixation overnight. The tissue was then sliced (10 micrometer thick). Each slice was deparaffinized and stained with hematoxylin and eosin. The morphology was checked by microscope. apoE KO mice fed chow diet (FIGS. 3A, 3B) or chow diet plus myriocin (FIGS. 3C, 3D). FIGS. 3A and 3C are at 10× magnification, while FIGS. 3B and 3D are at 40× magnification.\nMouse small intestine hematoxylin and eosin staining: The small intestine was dissected out and put into 4% paraformaldehyde for fixation overnight. The tissue was then sliced (10 micro m thick). Each slice was deparaffinized and stained with hematoxylin and eosin.\nTo investigate whether myriocin treatment or Sptlc1^+/− had any impact on small intestine morphology, intestinal sections were stained with hematoxylin and eosin. As shown in FIGS. 2 through 4, neither myriocin treatment nor Sptlc1^+/− influenced the morphology of the small intestine."}}, "note": "Entries after “also recorded” stand apart in the source; their conditions may differ.", "data": [{"smiles": "CCCCCCC(=O)CCCCCC/C=C/C[C@@H](O)[C@H](O)[C@@](N)(CO)C(=O)O", "note": "[Myriocin, myriocin]", "values": [{"measurement": "NPC1L1 protein mass in small intestine", "setting": "NPC1L1", "value": "significantly decreased"}, {"measurement": "ABCG5 mRNA levels (printed ABCG5/G8)", "setting": "ABCG5 mRNA; liver", "value": "no influence"}, {"measurement": "increase of ABCG5 mRNA levels compared with controls", "setting": "ABCG5 mRNA; WT mice", "value": 52, "unit": "%"}, {"measurement": "increase of ABCG5 mRNA levels compared with controls", "setting": "ABCG5 mRNA; apoE KO mice", "value": 69, "unit": "%"}, {"measurement": "NPC1L1 mRNA levels", "setting": "NPC1L1 mRNA", "value": "No significant changes"}, {"measurement": "ABCG8 mRNA levels (printed ABCG5/G8)", "setting": "ABCG8 mRNA; liver", "value": "no influence"}, {"measurement": "increase of ABCG8 mRNA levels compared with controls", "setting": "ABCG8 mRNA; WT mice", "value": 46, "unit": "%"}, {"measurement": "increase of ABCG8 mRNA levels compared with controls", "setting": "ABCG8 mRNA; apoE KO mice", "value": 63, "unit": "%"}, {"measurement": "[3H]triolein-derived counts in the plasma vs controls", "setting": "triglyceride absorption", "value": "No significant changes"}, {"measurement": "morphology / pathological changes of the small intestine (gastrointestinal toxicity)", "setting": "small intestine", "value": "no pathological changes; also recorded: intact villi, epithelia, enterocytes, goblet cells, and brush borders"}]}]}
